These compounds were tested against T1, KMO mouse enzyme (Mus musculus, UniProt Q91WN4) (assay: KMO mouse enzyme assay: L-Kynurenine hydroxylation to 3-Hydroxy-Kynurenine by LC/MS (protocols substantially similar to Example 33)). Conditions: compound at 30 µM; KMO enzyme from mouse liver mitochondria; 100 μM L-Kynurenine; 40 min at RT.
T1 construct: KMO enzyme prepared at Evotec from mouse liver (4-6 weeks old) via mitochondria isolation; from tissue; host or cells: mouse liver (4-6 weeks old), isolated mitochondria, prepared at Evotec
Type: biochemical
Method: A method of monitoring L-Kynurenine (KYN) hydroxylation to form 3-Hydroxy-Kynurenine (3OH-KYN) by LC/MS is described. Product is quantified by multiple reaction monitoring (MRM method). […]
Using the assay protocols substantially similar to those of Example 33, the following compounds were tested.

T1 sequence (Q91WN4 whole entry): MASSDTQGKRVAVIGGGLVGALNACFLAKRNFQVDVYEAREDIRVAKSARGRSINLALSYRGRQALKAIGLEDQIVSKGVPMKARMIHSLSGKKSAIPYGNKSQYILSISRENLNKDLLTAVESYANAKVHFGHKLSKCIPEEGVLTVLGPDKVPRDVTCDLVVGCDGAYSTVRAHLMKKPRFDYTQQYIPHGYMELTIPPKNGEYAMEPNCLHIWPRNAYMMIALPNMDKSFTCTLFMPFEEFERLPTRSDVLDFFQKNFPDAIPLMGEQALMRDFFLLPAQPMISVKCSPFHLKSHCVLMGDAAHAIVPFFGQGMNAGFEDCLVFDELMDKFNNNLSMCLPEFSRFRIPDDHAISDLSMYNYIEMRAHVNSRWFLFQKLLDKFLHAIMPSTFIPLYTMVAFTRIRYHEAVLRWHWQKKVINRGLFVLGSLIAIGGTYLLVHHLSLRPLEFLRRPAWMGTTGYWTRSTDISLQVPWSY

| SMILES | % Inhibition at 30 µM [%] | inhibition at 30 µM [%] |
| --- | --- | --- |
| N[C@@H](CCCCNC(=O)[C@H]1C[C@@H]1C(=O)c1ccc(Cl)c(Cl)c1)C(=O)O [(2S)-2-Amino-6-{[(1S,2S)-2-[(3,4-dichlorophenyl)carbonyl]cyclopropyl]formamide}hexanoic acid] | 98 |  |
| O=C(O)[C@H]1N[C@@H]1C(=O)c1ccc(Cl)c(Cl)c1 [(2S,3S)-3-[(3,4-Dichlorophenyl)carbonyl]aziridine-2-carboxylic acid] |  | 101 |
| C[N+](C)(C)CC(CC(=O)O)OC(=O)[C@H]1C[C@@H]1C(=O)c1ccc(Cl)c(Cl)c1 (stereo partly drawn) [(3-Carboxy-2-{[(1S,2S)-2-[(3,4-dichlorophenyl)carbonyl]cyclopropyl]carbonyloxy}propyl)trimethylazanium] | 99 |  |
| CCCCOC(=O)[C@H]1C[C@@H]1C(=O)c1ccc(Cl)c(Cl)c1 [Butyl (1S,2S)-2-[(3,4-Dichlorophenyl)carbonyl]cyclopropane-1-carboxylate] |  | 101 |
| COC(=O)[C@H]1C[C@@H]1C(=O)c1cc(Cl)cc(Cl)c1 [Methyl (1S,2S)-2-[(3,5-dichlorophenyl)carbonyl]cyclopropane-1-carboxylate] |  | 104 |
| CC(C)OC(=O)[C@H]1C[C@@H]1C(=O)c1ccc(Cl)c(Cl)c1 [Propan-2-yl (1S,2S)-2-[(3,4-dichlorophenyl)carbonyl]cyclopropane-1-carboxylate] |  | 101 |
| O=C(O)[C@H]1C[C@@H]1C(=O)c1ccc(F)c(Cl)c1 [Sodium (1S,2S)-2-[(3-chloro-4-fluorophenyl)carbonyl]cyclopropane-1-carboxylate] |  | 102 |
| Cc1ccc(C(=O)[C@H]2C[C@@H]2C(=O)[O-])cc1Cl.[Na+] [Sodium (1S,2S)-2-[(3-chloro-4-methylphenyl)carbonyl]cyclopropane-1-carboxylate] | 100 |  |
| CC(C)Oc1ccc(C(=O)[C@H]2C[C@@H]2C(=O)[O-])cc1Cl.[Na+] [Sodium (1S,2S)-2-{[3-chloro-4-(propan-2-yloxy)phenyl]carbonyl}cyclopropane-1-carboxylate] | 102 |  |
| O=C([O-])[C@H]1C[C@@H]1C(=O)c1ccc(C(F)(F)F)c(Cl)c1.[Na+] [Sodium (1S,2S)-2-{[3-chloro-4-(trifluoromethyl)phenyl]carbonyl}cyclopropane-1-carboxylate] | 102 |  |
| CC(C)(C)C(=O)OCOC(=O)[C@H]1C[C@@H]1C(=O)c1ccc(Cl)c(Cl)c1 [{[(1S,2S)-2-[(3,4-dichlorophenyl)carbonyl]cyclopropyl]carbonyloxy}methyl 2,2-dimethylpropanoate] |  | 102 |
